Consider 63 compounds from PubChem BioAssay (NCI).

Assay in all cases: NCI-60 cell line screen, 48 h
Test [1] concerns T-47D breast.
The subject of test [2] is MDA-N.
In test [3] the test system is LXFL 529 NSCLC.
Test [4] has as its system DMS 273 small cell lung.
For test [5], the system named is RXF-631 renal.
Test [6] concerns SNB-78 CNS.
The test system of test [7] is XF 498 CNS.
The test system of test [8] is DLD-1 colon.
Test [9] has as its system HOP-18 NSCLC.

Each structure is given as a SMILES string. Several values for one entry are separate records, joined by “and”; a condition that tells them apart may be missing. Identical values can stand only once.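 Protocol summary: plate cells (96-well), add compound at 5 concentrations, incubate 48 h, interpolate endpoints linearly. GI50: concentration for 50% inhibition of growth. TGI is the concentration that stops growth completely.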

Regarding `O=C1C=C(OCC=C(Cl)Cl)C(=O)c2ccccc21`, in [1], the GI50 is 2.4 µM and the TGI is more than 29.6 µM.

On to `COC(=O)C(=O)C(C(=O)C(=O)Nc1nc(=S)[nH][nH]1)c1nc2ccc([N+](=O)[O-])cc2[nH]c1=O` (stereo not drawn), for which the TGI in test [2] and in test [1] was more than 100 µM in each case.

As to `Cc1ccc(NC(=O)CC2C(=O)Nc3ccccc3S2(=O)=O)cc1C` (stereo not drawn), the TGI in [3], in [4], in [5], in [6], in [7] and in [8] was more than 100 µM each time.

`CN1CCN(Cc2ccc(NC(=O)c3[nH]ncc3Nc3cc(OC4CCCC4)ncn3)cc2)CC1`: in [1], the GI50 was 5.06 µM and the TGI turned out to be 21.5 µM.

Consider `CCOc1cc[n+](C(=C=[N-])C#N)cc1`, for which the TGI in test [3], in test [4], in test [5], in [6], in [7] and in [8] was more than 100 µM throughout.

Regarding `COc1ccc(OC)c(/C=C/C(=O)c2ccc3cc(OC)ccc3c2)c1`, in [1], the GI50 is 0.811 µM and the TGI came out at 3.33 µM.

`O=C(O)CSc1nnc2c3ccccc3c3ccccc3c2n1` had a TGI in [2] of more than 100 µM.

Compound `CN(C)c1ccc(/C=N/NC(=O)c2cnc3ccccc3c2)cc1` registered a TGI in test [2] of more than 100 µM.

As to `COc1cc[nH]c1/C=C1\C(=O)Nc2ccc([N+](=O)[O-])c(N3CC[C@@H](O)C3)c21`, in test [1], the GI50 was 0.541 µM and the TGI worked out at 3.8 µM.

As to `CNCC1CCn2c(c(C3=C(c4cn(C)c5ccccc45)C(=O)NC3=O)c3ccccc32)C1` (stereo not drawn), in [1], the GI50 is 3.27 µM and the TGI was 7.27 µM.

Regarding `C=C1C(OCCO)OC2O[C@]3(C)CCC4[C@H](C)CCC1C24OO3` (stereo partly drawn), the GI50 was 14.8 µM in [2] and 1.56 µM in [1]. Moreover, the TGI in [2] is 87.9 µM; in test [1] it was more than 100 µM.

With `O=C(N/N=C/c1cccc(O)c1)c1ccc(C(F)(F)F)nc1Nc1cccc(C(F)(F)F)c1`, in test [1], the GI50 is 1.54 µM and the TGI worked out at 7.08 µM.

Regarding `Cc1c(C(=O)Nc2ccc(Cl)cc2)nc(N)nc1-c1cccc(Cl)c1`, the TGI in test [4], in [5], in test [9], in [6] and in [8] was more than 100 µM throughout.

With `CCC(=O)Oc1ccc(/C=N/NC(N)=S)nc1`, in test [1], the GI50 is 5.83 µM and the TGI was more than 100 µM.

On to `CC1=C(C(=O)NCc2ccccc2)C(c2ccccc2O)C(C(=O)NCc2ccccc2)=C(C)N1`, for which the TGI in [3] came to 28.7 µM; in test [4] it was 31.2 µM; in test [9], 60.1 µM; in test [6], 95.2 µM; in [7], 31.2 µM; in test [8], 36 µM.

For `O=C1/C(=C/c2cccc(F)c2)CN(C(=O)C(Cl)Cl)C/C1=C\c1cccc(F)c1`, in test [1], the GI50 was 0.317 µM and the TGI worked out at 1.76 µM.

Turning to `COn1cc(C(=O)N=C(SC)SC)c2ccccc21`, in [1], the GI50 was 75.1 µM and the TGI is more than 100 µM.

As to `CC(C)Cn1cnc2c(SCc3ccccn3)nc(N)nc21`, the TGI in [2] and in test [1] was more than 100 µM throughout.

With `CCN(CC)c1ccc(N=C2C=CC(=C(C#N)C#N)c3ccccc32)c(C)c1`, the TGI was determined as 6.51 µM in test [4]; 10.3 µM in test [9]; 6.42 µM in test [6]; 2.89 µM in test [7]; 6.5 µM in test [8].

Consider `COc1ccc(S(=O)(=O)N/N=C/CN2C(=O)c3ccccc3C2=O)cc1`, for which the TGI in test [3], in test [4], in test [7] and in test [8] was more than 100 µM throughout.

As for `CCN1C(=O)N(CC)C2C1NN=c1s/c(=C\c3cnc(C)n3C)c(=O)n12` (stereo not drawn), in test [1], the GI50 was 4.81 µM and the TGI is more than 100 µM.

Take `Nc1nc(N)c(-c2ccc(Cl)cc2)c(/C=C/c2ccc([N+](=O)[O-])cc2)n1`: in test [1], the GI50 is 6.19 µM and the TGI is more than 100 µM.

Take `NC(C(=O)O)c1ccc(C(=O)O)cc1` (stereo not drawn): the TGI in [3], in test [5], in [6], in test [7] and in [8] was more than 100 µM in each case.

As for `O=C(CN1CCN(c2ccccn2)CC1)Nc1ccc(Cl)cc1C(=O)c1ccccc1Cl`, in test [1], the GI50 was 3.89 µM and the TGI was more than 100 µM.

In the case of `CN(C)c1ccc(/C=c2\sc3nnc(Cc4ccccc4)n3c2=O)cc1`, the GI50 in test [3] was more than 100 µM; in [4] it was more than 10 µM; in test [9] it was more than 100 µM; in [6], more than 100 µM; in test [7], more than 100 µM; in test [8], more than 100 µM. The TGI in test [3], in test [4], in test [9], in [6], in test [7] and in test [8] was more than 100 µM in each case.

As for `COc1ccc([Se]c2ccc(OC)cc2)cc1`, the TGI in [4], in test [9], in test [7] and in [8] was more than 100 µM each time.

For the compound `CSc1nc(-c2cccc(NC(=O)CCl)c2)c(C#N)c(=O)n1C`, in test [1], the GI50 is 1.71 µM and the TGI amounted to 4.19 µM.

As to `O=C(Nc1ccc(N2CCNCC2)cn1)c1[nH]ncc1Nc1ncnc2sc3c(c12)CCC3`, in [1], the GI50 is 1.65 µM and the TGI is 4.27 µM.

As for `CCCC(CCC)C(=O)O`, the TGI in test [2] is more than 100 µM; in test [1] it was more than 20000 µM. Besides, the GI50 in test [1] is more than 100 µM.

The compound `CCC(=O)OCN1C(=O)C=CC1=O` gave a TGI in test [2] of 31.4 µM.

With `C#Cc1ccccc1N1C(=O)C=CC1=O`, the TGI in [3], in [6] and in [8] was more than 100 µM each time.

For the compound `Nc1ncnc2c1ncn2C1OC(C(=O)OCCO)C(O)C1O` (stereo not drawn), the TGI in [2] and in test [1] was more than 100 µM each time.

For `Cn1c(=O)c2[nH]cnc2n(C)c1=O.[CH2-]C(Cc1cccc2cc(C(=O)O)c(=O)oc12)OC.[Hg+2].[OH-]` (stereo not drawn), the GI50 in [2] was 17.2 µM; in test [1], 18.9 µM. The TGI in test [2] was 30.9 µM; in test [1], 63.5 µM.

For `CC(=O)N1CCN(C=S)CC1`, the TGI in test [3], in test [4], in test [5], in [6], in [7] and in test [8] was more than 100 µM in each case.

Turning to `NCCNc1ncnc2ccc(Cl)cc12`, the TGI in test [2] and in test [1] was more than 100 µM in each case.

Take `C=CC(=O)Nc1cccc(Nc2nc(Nc3ccc(N4CCN(C(C)=O)CC4)cc3OC)ncc2C(F)(F)F)c1`: in [1], the GI50 is 1.88 µM and 3.92 µM; the TGI was > 10 µM and 49.3 µM.

With `C(=NCCN=Cc1cccc2ccccc12)c1cccc2ccccc12`, the TGI in test [3], in test [4], in [9], in test [6], in test [7] and in test [8] was more than 100 µM each time.

On to `COC(=O)[C@]1(C)CC[C@]2(C)CC[C@]3(C)C(=CC(=O)[C@@H]4[C@@]5(C)CCC(=O)NC(C)(C)[C@@H]5CC[C@]43C)[C@@H]2C1`, for which, in [1], the GI50 was 9.97 µM and the TGI is more than 100 µM.

As to `O=C1OC(=O)C2C1C1C(c3ccccc3)=C(c3ccccc3)C2(O)C2C(=O)OC(=O)C12` (stereo not drawn), the TGI in test [3], in [6] and in [8] was more than 100 µM throughout.

`CC(=O)N1c2ccc(-c3ccc(C(=O)O)cc3)cc2[C@H](Nc2ccc(Cl)cc2)C[C@@H]1C`: in test [1], the GI50 was 0.108 µM and the TGI came to 31 µM.

Take `O=[N+]([O-])c1ccc2nc(=S)[nH]n2c1`: the TGI in test [1] is more than 100 µM.

Regarding `CC(=O)c1cccc(NC(=O)/C(=N\NC(=S)NN)C2C(=O)Nc3ccccc3S2=O)c1` (stereo not drawn), the TGI in [2] and in test [1] was more than 100 µM in each case.

On to `CC(=O)Nc1cc(CN2CCCCC2)c(O)c2ncccc12`, for which the TGI in test [2] and in test [1] was more than 100 µM each time.

As for `COc1ccc2c(c1)NC(=O)CN2c1nc(C)nc2ccccc12`, in [1], the GI50 is 5.89 µM and the TGI is more than 100 µM.

Take `NC(N)=NC(N)=NCc1ccco1`: in [1], the GI50 is more than 1250 µM and the TGI is more than 1250 µM.

For the compound `CC1CC2(C)CC(=O)C1C1C(=O)N(CCN3CCOCC3)C(=O)C12` (stereo not drawn), in test [1], the GI50 is more than 100 µM and the TGI is more than 100 µM.

With `COc1ccc(-c2cc(=O)c3cccnc3[nH]2)cc1`, in test [2], the GI50 is 20.8 µM and the TGI was found to be 78.3 µM. Besides, the TGI in [1] was more than 100 µM.

As for `COC(=O)CCc1c(/C=C2\N=C(c3ccc[nH]3)C=C2OC)[nH]c(C)c1C(=O)OCc1ccccc1`, in [1], the GI50 was 0.235 µM and the TGI was found to be 1.45 µM.

As for `COc1ccc(-c2cc3c(N)ncnc3o2)cc1`, in test [1], the GI50 was more than 25 µM and the TGI was more than 25 µM.

With `CCc1cccc(CC)c1NC(=O)C1=CNC(C)=C(C(=O)Nc2c(CC)cccc2CC)C1c1ccc(O)c(OC)c1` (stereo not drawn), the TGI in [3] was more than 100 µM; in test [5], more than 100 µM; in test [6], more than 100 µM; in test [7], 67.3 µM; in test [8], more than 100 µM.

In the case of `CC(C)CC1NC(=O)C(C(C)C)NC(=O)CC(C)COC(=O)C(CC(C)C)N(C)C(=O)C(C(C)C)NC(=O)C(C(C)C)OC1=O` (stereo not drawn), the TGI in [2] and in test [1] was more than 50 µM in each case.

Regarding `O=C(OCc1ccccc1)c1ccccc1-c1c2ccc(=O)cc-2oc2cc(OCc3ccccc3)ccc12`, the TGI in test [3] is more than 100 µM; in [4], more than 100 µM; in [6], more than 100 µM; in test [7], 33.6 µM; in test [8], 39.1 µM.

For the compound `OCC(O)C(OC1OC(CO)C(O)C(O)C1O)c1nn(-c2ccc(Cl)cc2)c2nc3cc(Cl)ccc3nc12` (stereo not drawn), the TGI in test [3], in test [5], in test [6], in test [7] and in [8] was more than 100 µM throughout.

Regarding `ClCCCN1CCCCC1CCl` (stereo not drawn), the TGI in test [3], in [4], in test [9] and in [8] was more than 100 µM in each case.

Take `COc1ccc(CNC(=O)c2c(C)n([O-])c3cc(F)c(F)cc3[n+]2=O)cc1`: in test [1], the GI50 was 3.33 µM and the TGI came out at 16.1 µM.

For `CC1SC(c2cccc(Cl)c2)N(NC(=O)C(O)c2ccccc2)C1=O` (stereo not drawn), in [1], the GI50 was more than 100 µM and the TGI was more than 100 µM.

With `N#CC(CC(=O)O)=C(c1ccccc1)c1ccccc1`, the TGI in test [2] was more than 100 µM.

In the case of `Nc1cc(N)c2nc(-c3ccccc3)c(Oc3ccc(Cl)c(Cl)c3)nc2c1`, in test [1], the GI50 was 24.5 µM and the TGI was determined as 79.1 µM.

Consider `CC(=O)CC(=O)ON(C)C(=O)Cc1ccccc1`, for which the TGI in [3], in test [4], in test [6], in [7] and in [8] was more than 100 µM in each case.

With `COC(=O)C1=C(O)C(C(=O)OC)[C@@]2(O)[C@@H](C(=O)OC)C(c3ccccc3Cl)C[C@@H]1[C@@H]2C(=O)OC` (stereo partly drawn), in test [1], the GI50 was 11.6 µM and the TGI is 40.3 µM.

Take `NC(N)=N/N=C/c1ccc(Br)cc1`: in [1], the GI50 is 5.57 µM and the TGI was found to be 23.7 µM.

For the compound `CCCCCCCCCCCCCCCC(N)c1ccccc1` (stereo not drawn), in test [1], the GI50 is 1.56 µM and the TGI was found to be 3.08 µM.

For the compound `O=C1CC2OCC=C3CN4CCC56c7ccccc7N1C5C2C3CC46` (stereo not drawn) (tested in a mixture with another compound), the GI50 in test [2] and in test [1] was more than 50 µg/mL each time. The TGI in test [2] and in [1] was more than 50 µg/mL throughout.
